Laboratory results: ChEMBL document CHEMBL1132548, “Exploring the structure-activity relationships of [1-(4-tert-butyl-3'-hydroxy)benzhydryl-4-benzylpiperazine] (SL-3111), a high-affinity and selective delta-opioid receptor nonpeptide agonist ligand” (J Med Chem, 1999)

Experiments:
[1] = target: Mu-type opioid receptor (Rattus norvegicus, UniProt P33535); assay: In vitro inhibition of [3H]DAMGO (Tyr-D-Ala-Gly-(Me)-Phe-Gly-ol) binding to Opioid receptor mu 1 using rat brain membranes; type: cell membranes, Membrane
Mu-type opioid receptor (Rattus norvegicus, UniProt P33535), sequence (P33535 whole entry): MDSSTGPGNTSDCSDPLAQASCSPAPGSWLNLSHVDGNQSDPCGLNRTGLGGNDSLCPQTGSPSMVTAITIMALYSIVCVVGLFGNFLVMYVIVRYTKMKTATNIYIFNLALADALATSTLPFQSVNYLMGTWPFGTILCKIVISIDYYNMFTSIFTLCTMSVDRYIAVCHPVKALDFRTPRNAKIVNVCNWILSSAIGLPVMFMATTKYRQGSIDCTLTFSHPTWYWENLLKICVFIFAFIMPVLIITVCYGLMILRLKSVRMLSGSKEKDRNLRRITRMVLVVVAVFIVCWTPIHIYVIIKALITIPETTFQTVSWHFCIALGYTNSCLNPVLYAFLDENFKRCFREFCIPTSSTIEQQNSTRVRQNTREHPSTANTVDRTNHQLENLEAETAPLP

[2] = target: T1, Delta-type opioid receptor (Rattus norvegicus, UniProt P33533); assay: In vitro inhibition of [3H]deltorphin binding to Opioid receptor delta 1 using rat brain membranes.; type: cell membranes, Membrane
T1 sequence (P33533 whole entry): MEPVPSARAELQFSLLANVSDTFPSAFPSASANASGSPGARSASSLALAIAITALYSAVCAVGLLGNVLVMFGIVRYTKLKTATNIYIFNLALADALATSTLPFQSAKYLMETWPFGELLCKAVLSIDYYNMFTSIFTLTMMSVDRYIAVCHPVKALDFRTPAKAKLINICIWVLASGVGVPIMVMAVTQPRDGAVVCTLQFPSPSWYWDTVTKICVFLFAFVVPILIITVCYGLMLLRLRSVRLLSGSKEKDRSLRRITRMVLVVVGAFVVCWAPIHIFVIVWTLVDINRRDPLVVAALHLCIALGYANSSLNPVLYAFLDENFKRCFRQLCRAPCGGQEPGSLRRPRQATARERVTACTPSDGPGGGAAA

[3] = target: Mu-type opioid receptor (Mus musculus, UniProt P42866); assay: Agonist activity using electrically induced smooth muscle contraction of mouse vas deferens.; type: functional
Mu-type opioid receptor (Mus musculus, UniProt P42866), sequence (P42866 whole entry): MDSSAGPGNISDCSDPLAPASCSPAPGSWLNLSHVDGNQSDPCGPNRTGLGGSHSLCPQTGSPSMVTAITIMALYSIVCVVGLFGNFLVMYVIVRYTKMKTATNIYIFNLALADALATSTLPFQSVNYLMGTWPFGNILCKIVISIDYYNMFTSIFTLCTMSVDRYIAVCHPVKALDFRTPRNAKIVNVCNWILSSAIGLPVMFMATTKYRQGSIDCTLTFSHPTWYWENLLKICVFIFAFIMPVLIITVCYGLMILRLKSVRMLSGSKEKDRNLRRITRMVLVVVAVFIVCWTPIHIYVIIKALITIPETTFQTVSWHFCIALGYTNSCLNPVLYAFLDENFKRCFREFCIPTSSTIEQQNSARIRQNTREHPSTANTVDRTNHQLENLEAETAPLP

[4] = target: Mu-type opioid receptor (Homo sapiens) (UniProt P35372); assay: Agonist activity using strips of guinea pig ileum longitudinal muscle myenteric plexus at 30 uM; type: functional, tissue-based
Mu-type opioid receptor (Homo sapiens), sequence (P35372 whole entry): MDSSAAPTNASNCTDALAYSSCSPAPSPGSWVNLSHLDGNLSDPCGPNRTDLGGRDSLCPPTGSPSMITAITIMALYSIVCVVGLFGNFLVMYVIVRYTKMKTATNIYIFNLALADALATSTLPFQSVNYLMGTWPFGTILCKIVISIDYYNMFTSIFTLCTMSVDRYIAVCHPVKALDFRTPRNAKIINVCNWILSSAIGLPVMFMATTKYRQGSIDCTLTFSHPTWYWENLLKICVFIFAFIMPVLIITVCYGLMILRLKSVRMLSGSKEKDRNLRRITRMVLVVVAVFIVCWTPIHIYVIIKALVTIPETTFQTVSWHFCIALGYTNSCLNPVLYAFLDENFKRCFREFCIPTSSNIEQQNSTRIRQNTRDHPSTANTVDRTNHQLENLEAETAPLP

[5] = target: Mu-type opioid receptor (Mus musculus) (UniProt P42866); settings: Vas deferens; 1 uM
Mu-type opioid receptor (Mus musculus), sequence (P42866 whole entry): as the sequence (P42866 whole entry) above
Description: Agonist activity using electrically induced smooth muscle contraction of mouse vas deferens at 1 uM

[6] = target: Mu-type opioid receptor (Homo sapiens) (UniProt P35372); settings: guinea pig; Ileum; at 10 µM
[7] = target: Mu-type opioid receptor (Cavia porcellus, UniProt P97266); assay: Agonist activity using strips of guinea pig ileum longitudinal muscle myenteric plexus.; type: functional, tissue-based
Mu-type opioid receptor (Cavia porcellus, UniProt P97266), sequence (P97266 whole entry): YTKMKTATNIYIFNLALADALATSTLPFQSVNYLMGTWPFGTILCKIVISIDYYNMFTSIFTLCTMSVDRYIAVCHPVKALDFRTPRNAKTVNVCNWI

[8] = target: T1, Delta-type opioid receptor; assay: In vitro inhibition of [3H]- [p-Cl-Phe4]DPDPE binding to Opioid receptor delta 1 using rat brain membranes.; type: cell membranes, Membrane
[9] = target: Mu-type opioid receptor (Cavia porcellus) (UniProt P97266); assay: Agonist activity using strips of guinea pig ileum longitudinal muscle myenteric plexus at 10 uM; type: functional, tissue-based
Mu-type opioid receptor (Cavia porcellus), sequence (P97266 whole entry): as above

[10] = target: Mu-type opioid receptor (Mus musculus) (UniProt P42866); assay: Agonist activity using electrically induced smooth muscle contraction of mouse vas deferens at 30 uM; type: functional, tissue-based

| Structure (SMILES) | IC50 [1] [µM] | IC50 [2] [µM] | IC50 [3] [µM] | other results |
| --- | --- | --- | --- | --- |
| CC(C)(C)c1ccc(C(c2cccc(O)c2)N2CCN(Cc3ccccc3)C[C@@H]2Cc2ccccc2)cc1 (stereo in doubt; 15c2) | 46.3 | 21.3 | – | – |
| C[C@H]1CN(Cc2ccccc2)CCN1C(c1ccc(C(C)(C)C)cc1)c1cccc(O)c1 (stereo partly drawn) | 3.3 | 0.011 | 0.29 | inhibition [4]: 0% |
| CC(C)(C)c1ccc(C(c2cccc(O)c2)N2CCC(Cc3ccccc3)CC2)cc1 (stereo not drawn) | 22.9 | 12.6 | – | – |
| CC(C)(C)c1ccc(C(c2cccc(O)c2)N2CCN(Cc3ccccc3)C[C@@H]2Cc2ccccc2)cc1 (stereo in doubt; 15c1) [listing 1 of 2 here] | – | – | – | inhibition [5]: 10%; inhibition [4]: 0% |
| CC(C)(C)c1ccc(C(c2cccc(O)c2)N2CCN(Cc3ccccc3)C[C@@H]2Cc2ccccc2)cc1 (stereo in doubt; 15c1) [listing 2 of 2 here] | > 80 | > 10 | – | – |
| CC(C)(C)c1ccc(C(c2cccc(O)c2)N2CCN(Cc3ccccc3)C[C@@H]2CO)cc1 (stereo partly drawn) | 7.98 | 0.038 | 2.26 | inhibition [6]: 36% |
| CC(C)(C)c1ccc(C(c2cccc(O)c2)C2CCN(Cc3ccccc3)CC2)cc1 (stereo not drawn) | 4.3 | 0.033 | 0.39 | IC50 [7]: 15.6 µM |
| O=C(OCc1ccc(O)cc1)N1CSC(=S)N(Cc2ccccc2)C1 | 38.3 | – | – | IC50 [8]: 44.7 µM |
| S=C1SCN(Cc2ccccc2)CN1Cc1ccccc1 [SULBENTINE] | 27.9 | – | – | IC50 [8]: 28.6 µM |
| CC(C)(C)c1ccc(C(c2cccc(O)c2)N2CCN(Cc3ccccc3)C[C@@H]2COCc2ccccc2)cc1 (stereo partly drawn) | 26 | 0.038 | – | inhibition [9]: 0%; inhibition [10]: 44% |
